Assay results as given in patent US20230058623A1, “NOVEL HETEROARYL-TRIAZOLE COMPOUNDS AS PESTICIDES” (Bayer Aktiengesellschaft, priority 2019, published 2023).

Tested on: adult Blattella germanica strain PAULINIA
Experiment: whole plant or invertebrate
Assay type: in vivo
Settings: read-out: efficacy (mortality)
Procedure: Blattella germanica Test (BLTTGE Surface Treatment & Contact Assay)
Solvent: Aceton+2000 ppm rapeseed oil methyl ester (RME) In order to produce a sufficient, active ingredient containing solution it is necessary to solve the test compound in the solvent-mix (acetone at 2 mg/ml/RME 2000 ppm). This solution is pipetted onto a glazed tile and after evaporation of the acetone, adult animals of the species Blattella germanica strain PAULINIA are placed onto the dried surface. The exposure time is 30 minutes.
Mortality in percent (%) is determined 24 hours after contact of the insects to the treated surface. 100% mortality means that all tested insects are dead, whereas 0% means that no insect died.

## Cc1nc([C@H](C)NC(=O)c2cc(C(F)(F)F)cc(C(F)(F)F)c2)n(-c2ccc(C(=O)N3CCOCC3)cn2)n1 [Example I-9, N-[(1S)-1-{3-methyl-1-[5-(morpholin-4-ylcarbonyl)pyridin-2-yl]-1H-1,2,4-triazol-5-yl}ethyl]-3,5-bis(trifluoromethyl)benzamide]
  mortality at 20 mg/m2: 80 to 100%
